Data on 14 compounds can be found in patent US10087165B2, “Fluoroquinolones and use thereof to treat bacterial infections” (UNIVERSITÉ PIERRE ET MARIE CURIE—PARIS 6 (UPMC), priority 2014, dated 2018).

Each structure is given as a SMILES string. Converted amounts (≈) assume the structure as drawn. Read-outs that look alike come from different tables or passages of the source. Bounds are passed on as bounds.

Assay [1] concerns M. tuberculosis H37Rv. Put plainly: microbe, parasite or virus in culture. The class given is cell-based. Details: MIC against wild-type M. tuberculosis strain (below moxifloxacin MIC): unit not given beside the values. Particulars: for MIC: Mycobacterium tuberculosis.
Assay [2] has as its target T1, M. tuberculosis DNA gyrase (Mycobacterium tuberculosis, UniProt P9WG45+P9WG47). Description: biochemical.
Assay [3] concerns M. tuberculosis H37Rv strain. Put plainly: Minimal effective dosage in the murine TB model. The class given is in vivo, Balb/C/J female mice. To be noted: 25 mg/kg/j, Gavage. The protocol: Four-week-old Balb/C/J female mice were infected intravenously with 10^6 CFU of M. tuberculosis H37Rv strain. On the day following the infection (D1), 10 mice were sacrificed to determine the exact baseline values of spleen weight and CFU counts in the lungs. The remaining mice were allocated to the following treatment groups: an untreated negative control group for survival monitoring, a positive control group treated for 1 month with isoniazid (INH) 25 mg/kg/d, […] test groups were treated with Quin18 and Quin19 at increasing dosages (25 mg/kg/d; 50 mg/kg/d; 100 mg/kg/d; 150 mg/kg/d) given by oral gavage, and two additional test groups were treated intravenously with Quin18 25 mg/kg/d and 100 mg/kg/d. All the groups contained 10 mice and were treated from D1 to D28, 5 days a week. The parameters used for assessing the severity of infection and the effectiveness of treatments were survival rate, spleen weight, gross lung lesions and CFU counts in the lungs.
The minimal effective dosage was defined as the minimal dosage able to prevent mortality of the mice, spleen enlargement and the occurrence of gross lung lesions. CFU counts were considered to be a more precise way of determining the dose-ranging efficacy of Quin18 and Quin19.
Survival rates between groups were plotted on a Kaplan-Meier curve and compared using the log-rank test.

Assay [4] addresses T1, M. tuberculosis DNA gyrase. Details: made in house. Particulars: Table 2; published previously (Poissy et al. 2010); cited from earlier work.
Assay [5] relates to M. tuberculosis H37Rv. To be noted: Table 2, published previously (Poissy et al. 2010); cited from earlier work.
Where [6] appears, read: H37RV, Table 3, read-out: MIC M. tuberculosis H37Rv.
The mark [7] stands for this setting: H37Rv, Table 2, read-out: MIC (M. tuberculosis) WT.

T1 sequence (P9WG47 whole entry): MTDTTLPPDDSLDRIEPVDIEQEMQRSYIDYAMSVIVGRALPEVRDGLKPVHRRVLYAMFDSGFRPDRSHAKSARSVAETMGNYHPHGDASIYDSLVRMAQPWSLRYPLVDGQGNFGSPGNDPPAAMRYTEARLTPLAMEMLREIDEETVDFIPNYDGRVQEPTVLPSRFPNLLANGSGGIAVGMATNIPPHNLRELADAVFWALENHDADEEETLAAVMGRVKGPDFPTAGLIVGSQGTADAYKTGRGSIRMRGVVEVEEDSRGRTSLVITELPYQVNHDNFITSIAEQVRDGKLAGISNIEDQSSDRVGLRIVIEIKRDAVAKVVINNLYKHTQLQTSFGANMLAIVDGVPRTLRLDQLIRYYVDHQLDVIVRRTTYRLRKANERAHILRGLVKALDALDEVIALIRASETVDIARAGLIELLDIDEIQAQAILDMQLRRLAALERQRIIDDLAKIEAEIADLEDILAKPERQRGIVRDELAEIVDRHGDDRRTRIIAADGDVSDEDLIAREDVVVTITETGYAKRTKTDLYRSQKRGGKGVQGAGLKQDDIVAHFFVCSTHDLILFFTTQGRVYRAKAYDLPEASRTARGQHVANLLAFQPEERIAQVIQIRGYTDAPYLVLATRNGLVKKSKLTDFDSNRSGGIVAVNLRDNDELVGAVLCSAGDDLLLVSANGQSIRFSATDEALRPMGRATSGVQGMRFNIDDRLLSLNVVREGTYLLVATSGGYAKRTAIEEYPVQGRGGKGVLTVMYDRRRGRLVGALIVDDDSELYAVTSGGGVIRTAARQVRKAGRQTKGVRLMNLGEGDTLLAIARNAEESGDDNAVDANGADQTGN
T1 sequence (P9WG45 whole entry): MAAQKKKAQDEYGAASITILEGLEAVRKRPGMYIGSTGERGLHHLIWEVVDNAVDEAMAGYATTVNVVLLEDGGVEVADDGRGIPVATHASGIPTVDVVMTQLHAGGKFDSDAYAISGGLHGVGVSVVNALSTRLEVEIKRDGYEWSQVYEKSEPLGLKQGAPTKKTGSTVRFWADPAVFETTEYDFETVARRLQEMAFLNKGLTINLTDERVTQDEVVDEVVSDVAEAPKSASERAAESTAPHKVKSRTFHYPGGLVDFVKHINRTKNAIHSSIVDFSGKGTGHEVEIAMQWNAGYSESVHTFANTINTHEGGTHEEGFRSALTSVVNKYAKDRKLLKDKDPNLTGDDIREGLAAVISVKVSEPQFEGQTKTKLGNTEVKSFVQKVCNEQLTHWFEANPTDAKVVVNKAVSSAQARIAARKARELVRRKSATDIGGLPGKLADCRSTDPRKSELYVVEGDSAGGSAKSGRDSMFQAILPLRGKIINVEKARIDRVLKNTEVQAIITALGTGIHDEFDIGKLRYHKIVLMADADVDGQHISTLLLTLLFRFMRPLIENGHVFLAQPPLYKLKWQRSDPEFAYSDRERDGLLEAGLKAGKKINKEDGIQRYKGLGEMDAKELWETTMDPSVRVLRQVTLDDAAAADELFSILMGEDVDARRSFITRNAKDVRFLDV

On to `CCCCCCCN1CCN(c2c(F)cc3c(=O)c(C(=O)O)cn(C4CC4)c3c2OC)CC1` [Compound 15, 1-cyclopropyl-6-fluoro-7-(4-heptylpiperazin-1-yl)-8-methoxy-4-oxo-1,4-dihydroquinoline-3-carboxylic acid], for which, in the assay on M. tuberculosis H37Rv [1] (setting [6]), the MIC stood at 2.2 µM (≈ 1.01 µg/mL).
One may read the IC50 as the concentration at which inhibition is half-maximal. In turn, `CCCCCCCCCCCCCCCCN1CCN(c2c(F)cc3c(=O)c(C(=O)O)cn(C4CC4)c3c2OC)CC1` [Quin 20, 1-cyclopropyl-6-fluoro-7-(4-hexadecylpiperazin-1-yl)-8-methoxy-4-oxo-1,4-dihydroquinoline-3-carboxylic acid] displayed an IC50 in assay [2] of 121 µM. In addition, the MIC in the assay with M. tuberculosis H37Rv [1] (setting [7]) was 0.2 µM (≈ 0.117 µg/mL).
`NNC(=O)c1ccncc1` [Isoniazid, isoniazid, reference compound] returned a Spleen weight in assay [3] of 237 ± 73.8 mg. For the same compound, in assay [3] (D1 to D28, 5 days a week, 10 mice), the “Survival: No. death” value was 0.
Regarding `CCCCCCCCCCN1CCN(c2cc3c(cc2F)c(=O)c(C(=O)O)cn3C2CC2)CC1` [Quin 9, 1-cyclopropyl-7-(4-decylpiperazin-1-yl)-6-fluoro-4-oxo-1,4-dihydroquinoline-3-carboxylic acid], the 50% inhibitory concentration (IC50) in assay [2] is 120 µM. Besides, in the assay with M. tuberculosis H37Rv [1] (setting [7]), the MIC was 0.5 µM (≈ 0.236 µg/mL).
In the case of `CCCCCCCCCCCCCCCCN1CCN(c2cc3c(cc2F)c(=O)c(C(=O)O)cn3C2CC2)CC1` [Quin 10, 1-cyclopropyl-6-fluoro-7-(4-hexadecylpiperazin-1-yl)-4-oxo-1,4-dihydroquinoline-3-carboxylic acid], the midpoint of inhibition in assay [2], the IC50, lay at 105 µM. Moreover, the MIC in the assay on M. tuberculosis H37Rv [1] (setting [7]) is 57 µM (≈ 31.7 µg/mL).
Turning to `COc1c(N2C[C@@H]3CCCN[C@@H]3C2)c(F)cc2c(=O)c(C(=O)O)cn(C3CC3)c12` [Moxifloxacin, moxifloxacin, reference compound], the MIC in the assay with M. tuberculosis H37Rv [1] (setting [6]) was determined as 1.2 µM (≈ 0.482 µg/mL). The “MIC against wild-type M. tuberculosis strain (below moxifloxacin MIC)” value with M. tuberculosis H37Rv [1] (Table 3) is 1.2.
Consider `COc1c(N2CCNC(C)C2)c(F)cc2c(=O)c(C(=O)O)cn(C3CC3)c12` (centres unmarked) [Gatifloxacin, gatifloxacin], for which the half-maximal inhibitory concentration (IC50) in assay [4] is 6.8 µM. The “MIC (M. tuberculosis) WT” value in the assay on M. tuberculosis H37Rv [5] is 0.32 µM (≈ 0.12 µg/mL).
Consider `O=C(O)c1cn(C2CC2)c2cc(N3CCNCC3)c(F)cc2c1=O` [Ciprofloxacin, ciprofloxacin, reference compound], for which, in the assay with M. tuberculosis H37Rv [1] (setting [7]), the MIC came to 1.5 µM (≈ 0.497 µg/mL).
Consider `CCCCCCCCCN1CCN(c2c(F)cc3c(=O)c(C(=O)O)cn(C4CC4)c3c2OC)CC1` [Compound 17, 1-cyclopropyl-6-fluoro-8-methoxy-7-(4-nonylpiperazin-1-yl)-4-oxo-1,4-dihydroquinoline-3-carboxylic acid], for which the MIC in the assay on M. tuberculosis H37Rv [1] (setting [6]) is 0.12 µM (≈ 0.0585 µg/mL).
In turn, `CCCCCN1CCN(c2cc3c(cc2F)c(=O)c(C(=O)O)cn3C2CC2)CC1` [Quin 15, 1-cyclopropyl-6-fluoro-4-oxo-7-(4-pentylpiperazin-1-yl)-1,4-dihydroquinoline-3-carboxylic acid] gave an IC50 in assay [2] of 76 µM. In addition, in the assay with M. tuberculosis H37Rv [1] (setting [7]), the MIC worked out at 6 µM (≈ 2.41 µg/mL).
On the same counts, the results for `CCCCCN1CCN(c2c(F)cc3c(=O)c(C(=O)O)cn(C4CC4)c3c2OC)CC1` [Quin 17, 1-cyclopropyl-6-fluoro-8-methoxy-4-oxo-7-(4-pentylpiperazin-1-yl)-1,4-dihydroquinoline-3-carboxylic acid] are 60 µM and 3.5 µM (≈ 1.51 µg/mL).
Consider `CCCCCCCCCCCN1CCN(c2c(F)cc3c(=O)c(C(=O)O)cn(C4CC4)c3c2OC)CC1` [Compound 19, 1-cyclopropyl-6-fluoro-8-methoxy-4-oxo-7-(4-undecylpiperazin-1-yl)-1,4-dihydroquinoline-3-carboxylic acid], for which, in the assay with M. tuberculosis H37Rv [1] (setting [6]), the MIC stood at 0.25 µM (≈ 0.129 µg/mL).
`CCCCCCCCCCCCN1CCN(c2c(F)cc3c(=O)c(C(=O)O)cn(C4CC4)c3c2OC)CC1` [Compound 20, 1-cyclopropyl-7-(4-dodecylpiperazin-1-yl)-6-fluoro-8-methoxy-4-oxo-1,4-dihydroquinoline-3-carboxylic acid]: the MIC in the assay on M. tuberculosis H37Rv [1] (setting [6]) is 0.47 µM (≈ 0.249 µg/mL).
`CCCCCCCCN1CCN(c2cc3c(cc2F)c(=O)c(C(=O)O)cn3C2CC2)CC1` [Quin 16, 1-cyclopropyl-6-fluoro-7-(4-octylpiperazin-1-yl)-4-oxo-1,4-dihydroquinoline-3-carboxylic acid] had an IC50 in assay [2] of 135 µM. In addition, the MIC in the assay with M. tuberculosis H37Rv [1] (setting [7]) is at most 0.2 µM.
